Measurements reported in article PMC6973011, “Stafia‐1: a STAT5a‐Selective Inhibitor Developed via Docking‐Based Screening of in Silico O‐Phosphorylated Fragments” (Chemistry (Weinheim an Der Bergstrasse, Germany), 2019).
Numbering of substitutions follows the chain as printed.

Legend:
Type in all cases: binding
[1] = molecular target: T1, STAT5b Arg566Trp (Homo sapiens, UniProt P51692, R566W); test: Fluorescence polarization assay, point mutant STAT5b Arg566Trp; settings: FP assay
T1 construct: made in house
T1 sequence (P51692 1-787 R566W): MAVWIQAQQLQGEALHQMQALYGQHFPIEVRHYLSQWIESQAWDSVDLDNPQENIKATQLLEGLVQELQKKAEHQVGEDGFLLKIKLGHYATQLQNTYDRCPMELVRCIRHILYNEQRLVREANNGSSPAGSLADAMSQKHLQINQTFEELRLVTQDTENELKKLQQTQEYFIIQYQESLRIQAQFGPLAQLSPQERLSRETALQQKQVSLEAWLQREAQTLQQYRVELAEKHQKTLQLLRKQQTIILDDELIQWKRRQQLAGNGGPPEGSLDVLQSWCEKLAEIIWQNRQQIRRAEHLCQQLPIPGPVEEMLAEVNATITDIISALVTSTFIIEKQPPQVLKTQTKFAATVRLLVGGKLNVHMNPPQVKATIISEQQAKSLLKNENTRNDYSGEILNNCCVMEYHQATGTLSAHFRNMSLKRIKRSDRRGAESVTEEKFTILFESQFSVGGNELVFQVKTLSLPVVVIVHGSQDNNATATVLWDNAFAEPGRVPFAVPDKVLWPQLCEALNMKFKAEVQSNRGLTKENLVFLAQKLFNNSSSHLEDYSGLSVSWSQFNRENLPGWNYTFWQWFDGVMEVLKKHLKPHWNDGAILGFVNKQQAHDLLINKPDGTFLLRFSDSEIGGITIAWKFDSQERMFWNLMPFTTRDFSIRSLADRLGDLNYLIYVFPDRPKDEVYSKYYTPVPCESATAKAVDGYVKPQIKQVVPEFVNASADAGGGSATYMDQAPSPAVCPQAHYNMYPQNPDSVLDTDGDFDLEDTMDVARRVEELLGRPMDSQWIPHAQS

[2] = molecular target: T2, STAT5b Arg566Trp/Met639Asn/Met644Lys (STAT5b‐3M) (Homo sapiens, UniProt P51692, M639N/M644K/R566W); test: Fluorescence polarization assay, triple mutant STAT5b-3M
T2 construct: made in house
T2 sequence (P51692 1-787 R566W/M639N/M644K): T1 sequence (P51692 1-787 R566W) with M639N, M644K

[3] = molecular target: T3, STAT5b Gln636Pro/Met639Asn/Phe640Leu/Met644Lys/Asn664Ser/Tyr679Phe (STAT5b‐6M) (Homo sapiens, UniProt P51692, F640L/M639N/M644K/N664S/Q636P/Y679F); test: Fluorescence polarization assay, mutant STAT5b-6M
T3 construct: made in house
T3 sequence (P51692 1-787 Q636P/M639N/F640L/M644K/N664S/Y679F): T1 sequence (P51692 1-787 R566W) with W566R, Q636P, M639N, F640L, M644K, N664S, Y679F

COc1cc(-c2cc(OP(=O)(O)O)cc(-c3cc(OC)c(OC)c(OC)c3)c2)cc(OC)c1OC [Compound 20] was tested. Which inhibition at 200 µM [1] did it give?
Its inhibition at 200 µM is 43 ± 7%.

And the IC50 ([2]; FP assay)?
Its IC50 is 101 ± 11 µM.

What about the Ki ([2]; FP assay) of the same compound?
Its Ki is 49 ± 5.4 µM.

And the “activity gap between STAT5b-3M and STAT5b-7M” value ([2]; FP assays)?
Its value is 2.5 fold.

And the inhibition at 200 µM ([3]; FP assay, 200 µM)?
The inhibition at 200 µM was 46 ± 8%.

And the “activity against STAT5b-6M lower than activity against wild-type STAT5a” value ([3]; FP assays)?
Its value is “approximately 10 fold”.
